One may read the IC50 as the point on the concentration scale where inhibition reaches its midpoint.

This assay addresses T1, chicken gizzard smooth muscle myosin subfragment-1 chemically crosslinked to either cardiac or skeletal actin (Gallus gallus, UniProt P10587).
T1 construct: chicken gizzard smooth muscle myosin subfragment-1
Put plainly: Smooth muscle myosin ATPase dose response assay (pyruvate kinase/horseradish peroxidase/pyruvate oxidase-coupled). The class given is biochemical. The conditions noted are these: ATPase activity of crosslinked smooth muscle actomyosin (subfragment-1); amplex red fluorescence; 4 parameter fit; read-out: IC50 Arithmetic Mean. The protocol:
Screening assays were performed using a pyruvate kinase and lactate dehydrogenase-coupled ATPase assay containing the following reagents: Potassium PIPES (50 mM), MgCl2 (3 mM), KCl (100 mM), ATP (0.15 mM), DTT (1 mM), BSA (0.1 mg/ml), NADH (0.5 mM), PEP (1.5 mM), pyruvate kinase (4 U/ml), lactate dehydrogenase (8 U/ml), and antifoam (50 ppm) (concentrations expressed are final assay concentrations). The pH was adjusted to 6.80 at 22 °C by addition of potassium hydroxide. Lead optimization assays were performed with a more sensitive pyruvate kinase/horseradish peroxidase/pyruvate oxidase-coupled ATPase assay containing the following reagents: Potassium PIPES (12 mM), MgCl2 (2 mM), KCl (100 mM), ATP (0.15 mM), BSA (0.05 mg/ml), potassium phosphate (2 mM), amplex red (0.1 mM), PEP (0.1 mM), pyruvate kinase (4 U/ml), horseradish peroxidase (0.5 U/ml), pyruvate oxidase (0.5 U/ml), and antifoam (50 ppm) (concentrations expressed are final assay concentrations). The pH was adjusted to 7.00 at 22 °C by addition of potassium hydroxide.
The protein components specific to this assay are chicken gizzard smooth muscle myosin subfragment-1 that has been chemically crosslinked to either cardiac or skeletal actin using an excess of 1-Ethyl-3-[3-dimethylaminopropyl]carbodiimide hydrochloride and N-hydroxysuccinimide. The exact concentration of the crosslinked smooth muscle myosin in the assay is determined empirically, by titration to achieve a desired rate of ATP hydrolysis. The concentration varies between protein preparations due to variations in the fraction of active molecules in each preparation.
Compound dose response assays are performed by first preparing a dilution series of test compound, each with an assay mixture containing potassium PIPES, MgCl2, KCl, ATP, BSA, potassium phosphate, amplex red, PEP, crosslinked smooth muscle actomyosin (subfragment-1), antifoam, and water. The assay is started by adding an equal volume of solution containing potassium Pipes, MgCl2, KCl, BSA, potassium phosphate, pyruvate kinase, horseradish peroxidase, pyruvate oxidase, antifoam, and water. ATP hydrolysis is monitored by measuring the fluorescence of amplex red (excitation at 480 nm, emission at 615 nm). The resulting dose response curve is fit by the 4 parameter equation y=Bottom+((Top-Bottom)/(1+((IC50/X)^Hill))). The IC50 is defined as the concentration at which ATPase activity is midway between the top and bottom of the dose response curve.

Consider `NC(=O)CCCNc1ccc(C(=O)NCc2cccnc2)c(NCCc2cccc(F)c2)n1` [(6-[(3-carbamoylpropyl)amino]-2-{[2-(3-fluorophenyl)ethyl]amino}(3-pyridyl))-N-(3-pyridylmethyl)carboxamide], for which the IC50 amounted to 42.8 µM.
On to `C/C=C/c1nc(NCCc2cccc(F)c2)c(C(=O)NCc2cccnc2CN)cc1F` [(6-((1E)prop-1-enyl)-5-fluoro-2-{[2-(3-fluorophenyl)ethyl]amino}(3-pyridyl))-N-{[2-(aminomethyl)(3-pyridyl)]methyl}carboxamide], for which the IC50 was 0.0805 µM.
The figure for `C/C=C/c1nc(NCCc2cccc(F)c2)c(C(=O)NCc2cccnc2CNC(=O)OC(C)(C)C)cc1F` [(6-((1E)prop-1-enyl)-5-fluoro-2-{[2-(3-fluorophenyl)ethyl]amino}(3-pyridyl))-N-[(2-{[(tert-butoxy)carbonylamino]methyl}(3-pyridyl))methyl]carboxamide] is 11.7 µM.
Consider `CC(=O)N(CCO)c1ccc(C(=O)NCc2cccnc2)c(NCCc2cccc(F)c2)n1` [N-(6-{[2-(3-fluorophenyl)ethyl]amino}-5-[N-(3-pyridylmethyl)carbamoyl](2-pyridyl))-N-(2-hydroxyethyl)acetamide], for which the half-maximal inhibitory concentration (IC50) stood at 53.4 µM.
Consider `O=C(O)c1cc(Br)cnc1NCCc1cccc(F)c1` [5-bromo-2-{[2-(3-fluorophenyl)ethyl]amino}pyridine-3-carboxylic acid], for which the IC50 was 11.2 µM.
`CN(C)/C(=N/C#N)c1ccc(C(=O)NCc2cccnc2)c(NCCc2cccc(F)c2)n1` [(6-[(1E)-1-(dimethylamino)-2-cyano-2-azavinyl]-2-{[2-(3-fluorophenyl)ethyl]amino}(3-pyridyl))-N-(3-pyridylmethyl)carboxamide]: the half-maximal inhibitory concentration (IC50) is 5.19 µM.
Consider `O=C(NCc1ccccn1)c1cc(Br)cnc1NCCc1cccc(F)c1` [(5-bromo-2-{[2-(3-fluorophenyl)ethyl]amino}(3-pyridyl))-N-(2-pyridylmethyl)carboxamide], for which the IC50 turned out to be 11.8 µM.
Take `CC(C)=C(C)c1ccc(C(=O)NCc2cccnc2)c(NCCc2cccc(F)c2)n1` [(6-(1,2-dimethylprop-1-enyl)-2-{[2-(3-fluorophenyl)ethyl]amino}(3-pyridyl))-N-(3-pyridylmethyl)carboxamide]: the IC50 was determined as 2.77 µM.
As for `N#CNC(=N)c1ccc(C(=O)NCc2cccnc2)c(NCCc2cccc(F)c2)n1` [(6-[(cyanoamino)iminomethyl]-2-{[2-(3-fluorophenyl)ethyl]amino}(3-pyridyl))-N-(3-pyridylmethyl)carboxamide], the half-inhibitory concentration (IC50) is 0.231 µM.
The figure for `CC(O)CN(C)c1ccc(C(=O)NCc2cccnc2)c(NCCc2cccc(F)c2)n1` (stereo not shown) [(2-{[2-(3-fluorophenyl)ethyl]amino}-6-[(2-hydroxypropyl)methylamino](3-pyridyl))-N-(3-pyridylmethyl)carboxamide] is 10.5 µM; for `O=C(NCc1cccnc1)c1ccc(NCCCO)nc1NCCc1cccc(F)c1` [(2-{[2-(3-fluorophenyl)ethyl]amino}-6-[(3-hydroxypropyl)amino](3-pyridyl))-N-(3-pyridylmethyl)carboxamide] it is 8.47 µM; for `O=C(NCc1cccnc1)c1ccc(NCc2cccnc2)nc1NCCc1cccc(F)c1` [(2-{[2-(3-fluorophenyl)ethyl]amino}-6-[(3-pyridylmethyl)amino](3-pyridyl))-N-(3-pyridylmethyl)carboxamide] it is 5.61 µM.
The figure for `NC(=O)c1ccc(C(=O)NCc2cccnc2)c(NCCc2cccc(F)c2)n1` [6-{[2-(3-fluorophenyl)ethyl]amino}-5-[N-(3-pyridylmethyl)carbamoyl]pyridine-2-carboxamide] is 14 µM; for `Cn1cc(-c2cnc(NCCc3cccc(F)c3)c(C(=O)NCc3cccc(CN)n3)c2)cn1` [N-{[6-(aminomethyl)(2-pyridyl)]methyl}(2-{[2-(3-fluorophenyl)ethyl]amino}-5-(1-methylpyrazol-4-yl)(3-pyridyl))carboxamide] it is 17.7 µM; for `C/C=C/c1ccc(C(=O)NCc2cccnc2)c(NCCc2cccc(F)c2)n1` [(6-((1E)prop-1-enyl)-2-{[2-(3-fluorophenyl)ethyl]amino}(3-pyridyl))-N-(3-pyridylmethyl)carboxamide] it is 0.302 µM.
The figure for `O=C(NCc1cccnc1)c1ccc(NCc2ccccn2)nc1NCCc1cccc(F)c1` [(2-{[2-(3-fluorophenyl)ethyl]amino}-6-[(2-pyridylmethyl)amino](3-pyridyl))-N-(3-pyridylmethyl)carboxamide] is 10.8 µM.
In the case of `COCCCc1ccc(C(=O)NCc2cccnc2)c(NCCc2cccc(F)c2)n1` [(2-{[2-(3-fluorophenyl)ethyl]amino}-6-(3-methoxypropyl)(3-pyridyl))-N-(3-pyridylmethyl)carboxamide], the IC50 was 8.18 µM.
Regarding `CN(C)C(=O)CCCNc1ccc(C(=O)NCc2cccnc2)c(NCCc2cccc(F)c2)n1` [4-[(6-{[2-(3-fluorophenyl)ethyl]amino}-5-[N-(3-pyridylmethyl)carbamoyl](2-pyridyl))amino]-N,N-dimethylbutanamide], the IC50 came out at 70.3 µM.
In the case of `O=C(NCc1cccnc1)c1ccc(NCCO)nc1NCCc1cccc(F)c1` [(2-{[2-(3-fluorophenyl)ethyl]amino}-6-[(2-hydroxyethyl)amino](3-pyridyl))-N-(3-pyridylmethyl)carboxamide], the IC50 stood at 13.1 µM.
The figure for `C/C=C/c1nc(NCCc2cccc(F)c2)c(C(=O)NCc2cccnc2)cc1C#N` [(6-((1E)prop-1-enyl)-5-cyano-2-{[2-(3-fluorophenyl)ethyl]amino}(3-pyridyl))-N-(3-pyridylmethyl)carboxamide] is 0.361 µM; for `Cc1cccc(CNC(=O)c2cc(Br)cnc2NCCc2cccc(F)c2)n1` [(5-bromo-2-{[2-(3-fluorophenyl)ethyl]amino}(3-pyridyl))-N-[(6-methyl(2-pyridyl))methyl]carboxamide] it is 17.7 µM.
For the compound `COCCNc1ccc(C(=O)NCc2cccnc2)c(NCCc2cccc(F)c2)n1` [(2-{[2-(3-fluorophenyl)ethyl]amino}-6-[(2-methoxyethyl)amino](3-pyridyl))-N-(3-pyridylmethyl)carboxamide], the IC50 came out at 7.62 µM.
Consider `COC(=O)c1cc(C#N)cnc1NCCc1cccc(F)c1` [methyl 5-cyano-2-{[2-(3-fluorophenyl)ethyl]amino}pyridine-3-carboxylate], for which the IC50 turned out to be 14.9 µM.
On to `NCc1cccc(CNC(=O)c2cc(Br)cnc2NCCc2cccc(F)c2)n1` [N-{[6-(aminomethyl)(2-pyridyl)]methyl}(5-bromo-2-{[2-(3-fluorophenyl)ethyl]amino}(3-pyridyl))carboxamide], for which the IC50 turned out to be 15 µM.
With `N#Cc1ccc(C(=O)NCc2cccnc2)c(NCCc2cccc(F)c2)n1` [(6-cyano-2-{[2-(3-fluorophenyl)ethyl]amino}(3-pyridyl))-N-(3-pyridylmethyl)carboxamide], the IC50 is 65.8 µM.
`CCOC(=O)c1ccc(C(=O)NCc2cccnc2)c(NCCc2cccc(F)c2)n1` [ethyl 6-{[2-(3-fluorophenyl)ethyl]amino}-5-[N-(3-pyridylmethyl)carbamoyl]pyridine-2-carboxylate]: the half-maximal inhibitory concentration (IC50) is 2.65 µM.
The figure for `COC(=O)c1ccc(NCCCCC(N)=O)nc1NCCc1cccc(F)c1` [methyl 6-[(4-carbamoylbutyl)amino]-2-{[2-(3-fluorophenyl)ethyl]amino}pyridine-3-carboxylate] is 44.3 µM; for `CC(=O)c1ccc(C(=O)NCc2cccnc2)c(NCCc2cccc(F)c2)n1` [(6-acetyl-2-{[2-(3-fluorophenyl)ethyl]amino}(3-pyridyl))-N-(3-pyridylmethyl)carboxamide] it is 24.8 µM.
The figure for `CC(=O)N(C)c1ccc(C(=O)NCc2cccnc2)c(NCCc2cccc(F)c2)n1` [N-(6-{[2-(3-fluorophenyl)ethyl]amino}-5-[N-(3-pyridylmethyl)carbamoyl](2-pyridyl))-N-methylacetamide] is 33.5 µM; for `C/C=C/c1ccc(C(=O)NCc2cccnc2CN)c(NCCc2cccc(F)c2)n1` [(6-((1E)prop-1-enyl)-2-{[2-(3-fluorophenyl)ethyl]amino}(3-pyridyl))-N-{[2-(aminomethyl)(3-pyridyl)]methyl}carboxamide] it is 0.038 µM; for `CCOC(C)c1ccc(C(=O)NCc2cccnc2)c(NCCc2cccc(F)c2)n1` (stereo not shown) [(6-(ethoxyethyl)-2-{[2-(3-fluorophenyl)ethyl]amino}(3-pyridyl))-N-(3-pyridylmethyl)carboxamide] it is 73 µM.
